Literature values in patent publication US9902985B2 (priority 2012, dated 2018).
Like-named read-outs stand apart in the source and are kept apart here.

Assays:
Gram-positive organisms = settings: fold more potent than vancomycin

C=C(C/C=C(\C)CCC=C(C)C)CCC(C)(C)/C=C/CC/C(C)=C/CO[C@@H](COP(=O)(O)O[C@H]1O[C@H](C(N)=O)[C@@](C)(O)[C@H](OC(N)=O)[C@H]1O[C@@H]1O[C@H](CO[C@@H]2O[C@H](CO)[C@@H](O)[C@H](O)[C@H]2O)[C@@H](O[C@@H]2O[C@H](C)[C@@H](O[C@@H]3O[C@H](C(=O)NC4=C(O)CCC4=O)[C@H](O)[C@H](O)[C@H]3O)[C@H](O)[C@H]2NC(C)=O)[C@H](O)[C@H]1NC(C)=O)C(=O)O [Moenomycin A]
absorption upon oral administration: relatively poor | potency relative to vancomycin (Gram-positive organisms): a thousand times more potent | potency relative to vancomycin (Gram-positive organisms; listed as moenomycin): 10-1000 times
